The numbers were not newly measured in patent publication US20050095265A1, “Process for making larvicidal evaporation suppressant powder” (priority 2002, published 2005), which cites them from elsewhere.

Molecules are shown by their SMILES.

In the case of `CCCCCCCCCCCCCCCCO` [cetyl alcohol, n-hexadecanol], the larvicidal effect result with Culex quinquefasciatus (film-forming compound on water surface, Culex quinquefasciatus larvae) is on record as “no larvicidal effect”. Also, the “effect on larvae of feeding on particles floating on the water surface” value in the data set on Culex quinquefasciatus (particles on water surface of test units, apparently fed upon by mosquito larvae) is listed as “no ill effect”. Moreover, the “influence on aquatic larvae” value with Anopheles gambiae is “no appreciable influence”.
As for `CCCCCCCCCCCCO` [lauryl alcohol, dodecanol], the mosquito larvae mortality result in the data set with Culex quinquefasciatus (as reported by Lorenzen and Meinke) is listed as “cause mosquito larvae mortality”.
